# Several values for one entry are separate records, joined by “and”; a condition that tells them apart may be missing. Equal entries are not always repeated.
# Legend:
# [1] = target: GABA-A receptor; anion channel; assay: Binding affinity for GABA-A benzodiazepine receptor of rat hippocampal neurons; assay type: tissue-based, Hippocampus
# [2] = target: T1, GABA-A receptor; anion channel (Rattus norvegicus) (UniProt O09028+P15431+P18506+P18508+P19969+P20236+P23574+P23576+P28471+P28473+P30191+P62813+P63079+P63138+Q91ZM7+Q9ES14); assay: Percent binding to GABA-A benzodiazepine receptor of rat hippocampal neurons at 2 nM; assay type: tissue-based; conditions: Hippocampus
# [3] = target: T1, GABA-A receptor; anion channel (Rattus norvegicus); assay: Non-specific binding to GABA-A benzodiazepine receptor of rat hippocampal neurons after co-incubation with 1 uM midazolam (range is 7-10%); assay type: tissue-based; conditions: Hippocampus
# [4] = target: T1, GABA-A receptor; anion channel (Rattus norvegicus); assay: Saturation binding for benzodiazepine receptor of rat hippocampal neurons; assay type: tissue-based; conditions: Hippocampus
smiles,measurement,setting,value
CC1N=c2c(cc3c(c2S(=O)(=O)O)Oc2c(cc4c(c2S(=O)(=O)O)NC(C)C4(C)C)C=3c2ccc(C(=O)NCCN3C(=O)CN=C(c4ccccc4F)c4cc(Cl)ccc43)cc2)C1(C)C (centres undefined),Kd,[1],97.2 nM and 9.9 nM
same,Binding,[2],90%
same,Binding,[3],10%
same,Concentration,[4],120 nM

# — ChEMBL document CHEMBL1148354, “Dye-labeled benzodiazepines: development of small ligands for receptor binding studies using fluorescence correlation spectroscopy” (J Med Chem, 2004)
